# Data: US20040023919A1, “Blood lipid ameliorant composition” (SANKYO COMPANY, LIMITED, priority 2000, published 2004)
# Legend:
# Type in all cases: in vivo, Beagle dogs
# [1] = system: lipid peroxides in the blood; experiment: Blood lipid peroxide levels in dogs after oral administration for 11 days (Yagi's method); settings: relative ratio against averaged pre-dosing level (100), oral once daily, atorvastatin 2 mg/kg, mean of 5 animals
# From the text: (§1) Atorvastatin was synthesized at Chemtech Labo.
# (§2) Beagle dogs aged 5 months were purchased from Covance Research Products Inc. and used after 1 month of quarantine and acclimatisation breeding.
# (§3) The required amounts of atorvastatin or each component of the combination drug calculated from the body weight of each dog were weighed and filled in a gelatin capsule (½ ounce) purchased from TORPAC Inc. Capsules filled with atorvastatin were stocked in a refrigerator and those filled with combination drugs stocked at room temperature until use.
# (§4) Atorvastatin or combination drug capsules were forcibly orally administered to each of the test animals once daily between 9:00 and 12:30. Animals were fasted for 2 or 3 hr prior to administration of the capsules.
# (§5) The administration period was 11 successive days.
# (§6) Blood (10 mL) was collected from the superficial radial vein 2 or 1 weeks prior to administration and 4, 8, and 12 days after administration was started. Animals were fasted for approximately 18 hr prior to blood collection. Collected blood was placed in a test tube, left at room temperature for 0.5-1 hr, then centrifuged (3,000 rpm for 10 min). The obtained serum was used for assays of blood levels of total cholesterol, lipid peroxides and triglycerides according to CEH-COD-POD (Cholesterol ester hydrolase-Cholesteroloxidase-Peroxidase) methods, Yagi's methods and GK-GPO-POD (Glycerokinase-Glycerolphosphateoxidase-Peroxidase) methods respectively.
# (§7) All these values were converted to their relative ratios against their averaged pre-dosing levels (100) determined 2 and 1 weeks prior to drug administration. The averaged value in each group was obtained from 5 animals per group.
# GOT = GOT levels in dogs after oral administration (Table 9); settings: relative ratio against averaged pre-dosing level (100), oral once daily, atorvastatin 2 mg/kg, pantethine 300 mg/kg, mean of 5 animals
# From the text: Atorvastatin was synthesized at Chemtech Labo. Inc., and riboflavin butyrate, d-α-tocopherol acetate, ascorbic acid, pantethine and taurine were purchased from Mitsubishi-Tokyo Pharmaceutical Inc., Eisai Co., Ltd., NIPPON ROCHE K.K., Nacalai Tesque, Inc. and Dai-ich Pharmaceutical Co., Ltd., respectively.
# as §2, §3, §4, §5
# Blood (10 mL) was collected from the superficial radial vein 2 or 1 weeks prior to administration and 4, 8, and 12 days after administration was started. Animals were fasted for approximately 18 hr prior to blood collection. Collected blood was placed in a test tube, left at room temperature for 0.5-1 hr, then centrifuged (3,000 rpm for 10 min). […]
# (§8) All these levels were determined using a fluorometer (Hitachi, Ltd., F3000), a full automatic analyzer (Monarch, Instrumentation Laboratory), and an automatic analyzer (7170, Hitachi, Ltd.).
# Total cholesterol levels and so forth in the blood collected from dogs treated with either atorvastatin alone or a combination drug consisting of atorvastatin plus one of riboflavin butyrate, d-α-tocopherol acetate, ascorbic acid, pantethine and taurine were determined. All these values were converted to their relative ratios against their averaged pre-dosing levels (100) determined 2 and 1 weeks prior to drug administration. […]
# [2] = system: total cholesterol in the blood; experiment: Blood total cholesterol levels in dogs after oral administration for 11 days (CEH-COD-POD method); settings: relative ratio against averaged pre-dosing level (100), oral once daily, mean of 5 animals
# From the text: as §1, §2, §3, §4, §5
# as §6, with “respectively. (For assay method, see: Kanai's Manual of Clinical Laboratory Medicine; 31st Edition (September 1998), Kanehara & Co., Ltd.).” for “respectively.”
# as §8, §7
# Blood FFA = Blood FFA levels in dogs after oral administration (Table 8); settings: relative ratio against averaged pre-dosing level (100), oral once daily, atorvastatin 2 mg/kg, AA 500 mg/kg, mean of 5 animals
# [3] = system: triglycerides in the blood; experiment: Blood triglyceride levels in dogs after oral administration for 11 days (GK-GPO-POD method); settings: relative ratio against averaged pre-dosing level (100), oral once daily, statin 2 mg/kg, taurine 1000 mg/kg, mean of 5 animals
# From the text: as §1, §2, §3, §4, §5
# as §6, with “respectively. (For assay method, see: Kanai's Manual of Clinical Laboratory Medicine; 31st Edition (September 1998), Kanehara & Co., Ltd.).” for “respectively.”
# as §8, §7
# [4] = atorvastatin 2 mg/kg, RFVb 200 mg/kg
# [5] = atorvastatin 2 mg/kg, Tocoph 300 mg/kg
# [6] = statin 2 mg/kg, taurine 1000 mg/kg
compound,measurement,setting,value
"CC(C)c1c(C(=O)Nc2ccccc2)c(-c2ccccc2)c(-c2ccc(F)cc2)n1CC[C@@H](O)C[C@@H](O)CC(=O)O (relative stereo) [Atorvastatin alone, [R-(R*,R*)]-2-(4-fluorophenyl)-β,δ-dihydroxy-5-(1-methylethyl)-3-phenyl-4-[phenylamino]carbonyl]-1H-pyrrole-1-heptanoic acid]","Blood Lipid Peroxide Levels after administration, 4 days",[1]; Tocoph 300 mg/kg,104.5
same,"Blood Lipid Peroxide Levels after administration, 4 days",[1]; pantethine 300 mg/kg,104.5
same,"Blood Lipid Peroxide Levels after administration, 8 days",[1]; Tocoph 300 mg/kg,84.4
same,"Blood Lipid Peroxide Levels after administration, 8 days",[1]; pantethine 300 mg/kg,84.4
same,"Blood Lipid Peroxide Levels after administration, 12 days",[1]; Tocoph 300 mg/kg,80.9
same,"Blood Lipid Peroxide Levels after administration, 12 days",[1]; pantethine 300 mg/kg,80.9
same,"GOT Levels after administration, 4 days",GOT; 4 days,102.9
same,"GOT Levels after administration, 8 days",GOT; 8 days,95.5
same,"GOT Levels after administration, 12 days",GOT; 12 days,90.9
same,"Blood Total Cholesterol Levels after administration, 4 days",[2]; [4],102.9
same,"Blood Total Cholesterol Levels after administration, 4 days",[2]; [5],102.9
same,"Blood Total Cholesterol Levels after administration, 8 days",[2]; [4],95.5
same,"Blood Total Cholesterol Levels after administration, 8 days",[2]; [5],95.5
same,"Blood Total Cholesterol Levels after administration, 12 days",[2]; [4],90.9
same,"Blood Total Cholesterol Levels after administration, 12 days",[2]; [5],90.9
same,"Blood FFA Levels after administration, 4 days",Blood FFA,102.9
same,"Blood FFA Levels after administration, 8 days",Blood FFA,95.5
same,"Blood FFA Levels after administration, 12 days",Blood FFA,90.9
"O=C1O[C@H]([C@@H](O)CO)C(O)=C1O [AA alone, ascorbic acid]","Blood FFA Levels after administration, 4 days",Blood FFA,95.9
same,"Blood FFA Levels after administration, 8 days",Blood FFA,96.7
same,"Blood FFA Levels after administration, 12 days",Blood FFA,98.9
"CCCC(=O)OC[C@@H](OC(=O)CCC)[C@@H](OC(=O)CCC)[C@H](Cn1c2nc(=O)[nH]c(=O)c-2nc2cc(C)c(C)cc21)OC(=O)CCC [RFVb alone, riboflavin butyrate]","Blood Total Cholesterol Levels after administration, 4 days",[2]; [4],99.5
same,"Blood Total Cholesterol Levels after administration, 8 days",[2]; [4],99.0
same,"Blood Total Cholesterol Levels after administration, 12 days",[2]; [4],97.2
CCC(C)(C)C(=O)O[C@H]1C[C@@H](C)C=C2C=C[C@H](C)[C@H](CC[C@@H]3C[C@@H](O)CC(=O)O3)[C@H]21 [Simvastatin alone],"Blood Triglyceride Levels after administration, 4 days",[3]; 4 days,87.1
same,"Blood Triglyceride Levels after administration, 8 days",[3]; 8 days,86.7
same,"Blood Triglyceride Levels after administration, 12 days",[3]; 12 days,74.1
same,"Blood Total Cholesterol Levels after administration, 4 days",[2]; [6],102.9
same,"Blood Total Cholesterol Levels after administration, 8 days",[2]; [6],95.5
same,"Blood Total Cholesterol Levels after administration, 12 days",[2]; [6],90.9
"CC(=O)Oc1c(C)c(C)c2c(c1C)CC[C@@](C)(CCC[C@H](C)CCC[C@H](C)CCCC(C)C)O2 [Tocoph alone, d-α-tocopherol acetate]","Blood Lipid Peroxide Levels after administration, 4 days",[1]; Tocoph 300 mg/kg,106.3
same,"Blood Lipid Peroxide Levels after administration, 8 days",[1]; Tocoph 300 mg/kg,119.0
same,"Blood Lipid Peroxide Levels after administration, 12 days",[1]; Tocoph 300 mg/kg,75.9
same,"Blood Total Cholesterol Levels after administration, 4 days",[2]; [5],97.7
same,"Blood Total Cholesterol Levels after administration, 8 days",[2]; [5],95.1
same,"Blood Total Cholesterol Levels after administration, 12 days",[2]; [5],97.5
